{"source": "ChEMBL document CHEMBL1125505", "about": "“Nucleosides and nucleotides. 112. 2-(1-Hexyn-1-yl)adenosine-5'-uronamides: a new entry of selective A2 adenosine receptor agonists with potent antihypertensive activity” (J Med Chem, 1992)", "key": {"Adenosine A2 receptor": {"target": "Adenosine A2 receptor (Rattus norvegicus, UniProt P29276+P30543)", "type": "protein assay"}, "Rattus norvegicus [1]": {"tested_on": "Rattus norvegicus", "test": "Dose producing 10% decrease in heart rate of anesthetized spontaneously hypertensive rats (SHR's)", "type": "functional"}, "Rattus norvegicus [2]": {"tested_on": "Rattus norvegicus", "test": "Dose producing 30% decrease in blood pressure of anesthetized spontaneously hypertensive rats (SHR's)", "type": "functional"}, "Adenosine receptor A1": {"target": "T1, Adenosine receptor A1 (Rattus norvegicus, UniProt P25099)", "T1 sequence (P25099 whole entry)": "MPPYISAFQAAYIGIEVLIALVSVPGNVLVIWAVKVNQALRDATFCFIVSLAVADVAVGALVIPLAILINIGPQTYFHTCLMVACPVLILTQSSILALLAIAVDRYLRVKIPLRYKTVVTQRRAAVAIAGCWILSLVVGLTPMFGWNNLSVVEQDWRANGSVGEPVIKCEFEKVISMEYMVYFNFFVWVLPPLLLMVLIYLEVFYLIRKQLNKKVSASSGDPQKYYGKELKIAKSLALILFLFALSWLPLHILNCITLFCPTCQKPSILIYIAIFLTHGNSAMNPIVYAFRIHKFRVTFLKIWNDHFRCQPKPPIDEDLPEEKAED", "test": "Binding affinity against adenosine A1 receptor from rat brain membranes using [3H]cyclohexyladenosine as radioligand."}}, "data": [{"smiles": "Nc1nc(Nc2ccccc2)nc2c1ncn2[C@@H]1O[C@H](CO)[C@@H](O)[C@H]1O", "values": [{"measurement": "Ki", "setting": "Adenosine A2 receptor", "result": 83, "unit": "nM"}, {"measurement": "ED10", "setting": "Rattus norvegicus [1]", "result": "> 100", "unit": "µg/kg"}, {"measurement": "ED30", "setting": "Rattus norvegicus [2]", "result": 6.1, "unit": "µg/kg"}]}, {"smiles": "COc1cc(OC)cc(C(CNc2ncnc3c2ncn3[C@@H]2O[C@H](CO)[C@@H](O)[C@H]2O)c2ccccc2C)c1", "note": "(some centres undefined)", "values": [{"measurement": "Ki", "setting": "Adenosine receptor A1", "result": 64, "unit": "nM"}, {"measurement": "Ki", "setting": "Adenosine A2 receptor", "result": 4.6, "unit": "nM"}, {"measurement": "ED10", "setting": "Rattus norvegicus [1]", "result": "> 100", "unit": "µg/kg"}, {"measurement": "ED30", "setting": "Rattus norvegicus [2]", "result": 12.3, "unit": "µg/kg"}]}, {"smiles": "CCCCC#Cc1nc(N)c2ncn([C@@H]3O[C@H](C(N)=O)[C@@H](O)[C@H]3O)c2n1", "values": [{"measurement": "Ki", "setting": "Adenosine receptor A1", "result": 1270, "unit": "nM"}, {"measurement": "Ki", "setting": "Adenosine A2 receptor", "result": 19, "unit": "nM"}, {"measurement": "ED10", "setting": "Rattus norvegicus [1]", "result": "> 100", "unit": "µg/kg"}, {"measurement": "ED30", "setting": "Rattus norvegicus [2]", "result": 0.18, "unit": "µg/kg"}]}, {"smiles": "CCCCC#Cc1nc(N)c2ncn([C@@H]3O[C@H](C(=O)NCCCC)[C@@H](O)[C@H]3O)c2n1", "values": [{"measurement": "Ki", "setting": "Adenosine receptor A1", "result": 1930, "unit": "nM"}, {"measurement": "Ki", "setting": "Adenosine A2 receptor", "result": 169, "unit": "nM"}, {"measurement": "ED10", "setting": "Rattus norvegicus [1]", "result": "> 100", "unit": "µg/kg"}, {"measurement": "ED30", "setting": "Rattus norvegicus [2]", "result": 26.4, "unit": "µg/kg"}]}, {"smiles": "CCCCCCC#Cc1nc(N)c2ncn([C@@H]3O[C@H](CO)[C@@H](O)[C@H]3O)c2n1", "values": [{"measurement": "Ki", "setting": "Adenosine receptor A1", "result": 117, "unit": "nM"}, {"measurement": "Ki", "setting": "Adenosine A2 receptor", "result": 6.1, "unit": "nM"}, {"measurement": "ED10", "setting": "Rattus norvegicus [1]", "result": "> 100", "unit": "µg/kg"}, {"measurement": "ED30", "setting": "Rattus norvegicus [2]", "result": 0.35, "unit": "µg/kg"}]}, {"smiles": "CCCCC#Cc1nc(N)c2ncn([C@@H]3O[C@H](CCl)[C@@H](O)[C@H]3O)c2n1", "values": [{"measurement": "Ki", "setting": "Adenosine receptor A1", "result": 217, "unit": "nM"}, {"measurement": "Ki", "setting": "Adenosine A2 receptor", "result": 5.2, "unit": "nM"}, {"measurement": "ED10", "setting": "Rattus norvegicus [1]", "result": "> 3", "unit": "µg/kg"}, {"measurement": "ED30", "setting": "Rattus norvegicus [2]", "result": "> 3", "unit": "µg/kg"}]}, {"smiles": "CCCCC#Cc1nc(N)c2ncn([C@@H]3O[C@H](C(=O)NC4CC4)[C@@H](O)[C@H]3O)c2n1", "values": [{"measurement": "Ki", "setting": "Adenosine receptor A1", "result": 136, "unit": "nM"}, {"measurement": "Ki", "setting": "Adenosine A2 receptor", "result": 2.6, "unit": "nM"}, {"measurement": "ED10", "setting": "Rattus norvegicus [1]", "result": 40.7, "unit": "µg/kg"}, {"measurement": "ED30", "setting": "Rattus norvegicus [2]", "result": 0.17, "unit": "µg/kg"}]}, {"smiles": "CCCCC#Cc1nc(N)c2ncn([C@@H]3O[C@H](CO)[C@@H](O)[C@H]3O)c2n1", "values": [{"measurement": "Ki", "setting": "Adenosine receptor A1", "result": 103, "unit": "nM"}, {"measurement": "ED10", "setting": "Rattus norvegicus [1]", "result": 70.4, "unit": "µg/kg"}, {"measurement": "ED30", "setting": "Rattus norvegicus [2]", "result": 0.11, "unit": "µg/kg"}]}, {"smiles": "CCCCC#Cc1nc(N)c2ncn([C@@H]3O[C@H](C(=O)NCC)[C@@H](O)[C@H]3O)c2n1", "values": [{"measurement": "Ki", "setting": "Adenosine receptor A1", "result": 276, "unit": "nM"}, {"measurement": "Ki", "setting": "Adenosine A2 receptor", "result": 4.8, "unit": "nM"}, {"measurement": "ED10", "setting": "Rattus norvegicus [1]", "result": "> 100", "unit": "µg/kg"}, {"measurement": "ED30", "setting": "Rattus norvegicus [2]", "result": 0.3, "unit": "µg/kg"}]}, {"smiles": "CCCCC#Cc1nc(N)c2ncn(C3O[C@H](C/N=C(\\S)NC)[C@@H](O)[C@H]3O)c2n1", "note": "(some centres undefined)", "values": [{"measurement": "Ki", "setting": "Adenosine receptor A1", "result": "> 472", "unit": "nM"}, {"measurement": "Ki", "setting": "Adenosine A2 receptor", "result": "> 181", "unit": "nM"}, {"measurement": "ED10", "setting": "Rattus norvegicus [1]", "result": "> 100", "unit": "µg/kg"}, {"measurement": "ED30", "setting": "Rattus norvegicus [2]", "result": 54.5, "unit": "µg/kg"}]}, {"smiles": "CCCCC#Cc1nc(N)c2ncn(C3O[C@H](C(=O)NC)[C@@H](O)[C@H]3O)c2n1", "note": "(some centres undefined)", "values": [{"measurement": "Ki", "setting": "Adenosine receptor A1", "result": 1780, "unit": "nM"}, {"measurement": "Ki", "setting": "Adenosine A2 receptor", "result": 11, "unit": "nM"}, {"measurement": "ED10", "setting": "Rattus norvegicus [1]", "result": "> 100", "unit": "µg/kg"}, {"measurement": "ED30", "setting": "Rattus norvegicus [2]", "result": 0.51, "unit": "µg/kg"}]}, {"smiles": "CCCCC#Cc1nc(N)c2ncn(C3O[C@H](C(=O)NCCC)[C@@H](O)[C@H]3O)c2n1", "note": "(some centres undefined)", "values": [{"measurement": "Ki", "setting": "Adenosine receptor A1", "result": 1810, "unit": "nM"}, {"measurement": "Ki", "setting": "Adenosine A2 receptor", "result": 44, "unit": "nM"}, {"measurement": "ED10", "setting": "Rattus norvegicus [1]", "result": "> 100", "unit": "µg/kg"}, {"measurement": "ED30", "setting": "Rattus norvegicus [2]", "result": 2.88, "unit": "µg/kg"}]}, {"smiles": "CCCCC#Cc1nc(N)c2ncn(C3O[C@H](CNC(C)=O)[C@@H](O)[C@H]3O)c2n1", "note": "(some centres undefined)", "values": [{"measurement": "Ki", "setting": "Adenosine receptor A1", "result": "> 472", "unit": "nM"}, {"measurement": "Ki", "setting": "Adenosine A2 receptor", "result": "> 181", "unit": "nM"}, {"measurement": "ED10", "setting": "Rattus norvegicus [1]", "result": "> 100", "unit": "µg/kg"}, {"measurement": "ED30", "setting": "Rattus norvegicus [2]", "result": "> 100", "unit": "µg/kg"}]}, {"smiles": "CCCCC#Cc1nc(N)c2ncn(C3O[C@H](CNC(=O)NC)[C@@H](O)[C@H]3O)c2n1", "note": "(some centres undefined)", "values": [{"measurement": "Ki", "setting": "Adenosine receptor A1", "result": "> 472", "unit": "nM"}, {"measurement": "Ki", "setting": "Adenosine A2 receptor", "result": "> 181", "unit": "nM"}, {"measurement": "ED10", "setting": "Rattus norvegicus [1]", "result": "> 100", "unit": "µg/kg"}, {"measurement": "ED30", "setting": "Rattus norvegicus [2]", "result": "> 100", "unit": "µg/kg"}]}, {"smiles": "CCCCC#Cc1nc(N)c2ncn(C3O[C@H](CNC=O)[C@@H](O)[C@H]3O)c2n1", "note": "(some centres undefined)", "values": [{"measurement": "Ki", "setting": "Adenosine receptor A1", "result": "> 472", "unit": "nM"}, {"measurement": "Ki", "setting": "Adenosine A2 receptor", "result": "> 181", "unit": "nM"}, {"measurement": "ED10", "setting": "Rattus norvegicus [1]", "result": "> 100", "unit": "µg/kg"}, {"measurement": "ED30", "setting": "Rattus norvegicus [2]", "result": "> 100", "unit": "µg/kg"}]}, {"smiles": "CCCCC#Cc1nc(N)c2ncn(C3O[C@H](CNS(C)(=O)=O)[C@@H](O)[C@H]3O)c2n1", "note": "(some centres undefined)", "values": [{"measurement": "Ki", "setting": "Adenosine receptor A1", "result": "> 472", "unit": "nM"}, {"measurement": "Ki", "setting": "Adenosine A2 receptor", "result": "> 181", "unit": "nM"}, {"measurement": "ED10", "setting": "Rattus norvegicus [1]", "result": "> 100", "unit": "µg/kg"}, {"measurement": "ED30", "setting": "Rattus norvegicus [2]", "result": "> 100", "unit": "µg/kg"}]}, {"smiles": "CCNC(=O)[C@H]1O[C@@H](n2cnc3c(N)nc(NCCc4ccc(CCC(=O)O)cc4)nc32)[C@H](O)[C@@H]1O", "note": "[CGS-21680]", "values": [{"measurement": "ED10", "setting": "Rattus norvegicus [1]", "result": "> 100", "unit": "µg/kg"}, {"measurement": "ED30", "setting": "Rattus norvegicus [2]", "result": 0.83, "unit": "µg/kg"}]}, {"smiles": "CC(=O)O[C@]1(C(C)=O)CC[C@H]2[C@@H]3C=C(Cl)C4=CC(=O)[C@@H]5C[C@@H]5[C@]4(C)[C@H]3CC[C@@]21C", "note": "[CYPROTERONE ACETATE]", "values": [{"measurement": "Ki", "setting": "Adenosine A2 receptor", "result": 336, "unit": "nM"}, {"measurement": "ED10", "setting": "Rattus norvegicus [1]", "result": 0.17, "unit": "µg/kg"}, {"measurement": "ED30", "setting": "Rattus norvegicus [2]", "result": 0.53, "unit": "µg/kg"}]}, {"smiles": "CCNC(=O)[C@H]1O[C@@H](n2cnc3c(N)ncnc32)[C@H](O)[C@@H]1O", "note": "[NECA]", "values": [{"measurement": "ED10", "setting": "Rattus norvegicus [1]", "result": 0.35, "unit": "µg/kg"}, {"measurement": "ED30", "setting": "Rattus norvegicus [2]", "result": 0.23, "unit": "µg/kg"}]}]}
